Measured values reported in the supplement of paper PMC10307832.

Key:
Assay in all cases: relative viability (nuclei count vs DMSO), 5 days (fraction); higher = more cells survive
HOP-62 = system: HOP-62
Outline: (§1)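 Relative viability was taken as the ratio of nuclei in treated wells to nuclei in vehicle wells. Lung cancer cell lines in 1536-well plates received compounds by pin tool one day after seeding, either one drug alone or a fixed anchor-drug dose plus five library-drug doses (not always all listed) in √10 steps. Nuclei were counted on 4× images after 5 days of treatment, and values are medians of duplicate plates.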

EMC-BAC-2 = system: EMC-BAC-2
Outline: as §1

NCI-H1915 = system: NCI-H1915
Outline: as §1

EKVX = system: EKVX
Outline: as §1

HCC-366 = system: HCC-366
Outline: as §1

NCI-H1993 = system: NCI-H1993
Outline: as §1

201T = system: 201T
Outline: as §1

LK-2 = system: LK-2
Outline: as §1

BEN = system: BEN
Outline: as §1

NCI-H1734 = system: NCI-H1734
Outline: as §1

NCI-H2405 = system: NCI-H2405
Outline: as §1

NCI-H460 = system: NCI-H460
Outline: as §1

NCI-H522 = system: NCI-H522
Outline: as §1

NCI-H647 = system: NCI-H647
Outline: as §1

HCC-15 = system: HCC-15
Outline: as §1

A-427 = system: A-427
Outline: as §1

PC-14 = system: PC-14
Outline: as §1

HCC-78 = system: HCC-78
Outline: as §1

## CN1CCN(CCOc2cc(OC3CCOCC3)c3c(Nc4c(Cl)ccc5c4OCO5)ncnc3c2)CC1 [Saracatinib] + NC(=O)Nc1cc(-c2cccc(F)c2)sc1C(=O)N[C@H]1CCCNC1 [AZD7762] (partner 0.2 µM)
HOP-62; first compound 0.02 µM
  relative viability: 0.945
HOP-62; first compound 0.2 µM
  relative viability: 0.614
HOP-62; first compound 0.6325 µM
  relative viability: 0.707
HOP-62; first compound 2 µM
  relative viability: 0.905
EMC-BAC-2; first compound 0.02 µM
  relative viability: 1.12
EMC-BAC-2; first compound 0.2 µM
  relative viability: 1.09
EMC-BAC-2; first compound 0.6325 µM
  relative viability: 1.09
EMC-BAC-2; first compound 2 µM
  relative viability: 0.946
NCI-H1915; first compound 0.02 µM
  relative viability: 0.632
NCI-H1915; first compound 0.2 µM
  relative viability: 0.639
NCI-H1915; first compound 0.6325 µM
  relative viability: 0.684
NCI-H1915; first compound 2 µM
  relative viability: 0.696
EKVX; first compound 0.02 µM
  relative viability: 0.841
EKVX; first compound 0.6325 µM
  relative viability: 0.659
EKVX; first compound 2 µM
  relative viability: 0.29
HCC-366; first compound 0.02 µM
  relative viability: 0.215
HCC-366; first compound 0.2 µM
  relative viability: 0.0547
HCC-366; first compound 0.6325 µM
  relative viability: 0.216
HCC-366; first compound 2 µM
  relative viability: 0.139
NCI-H1993; first compound 0.02 µM
  relative viability: 0.836
NCI-H1993; first compound 0.2 µM
  relative viability: 0.719
NCI-H1993; first compound 0.6325 µM
  relative viability: 0.694
NCI-H1993; first compound 2 µM
  relative viability: 0.581
201T; first compound 0.02 µM
  relative viability: 0.554
201T; first compound 0.2 µM
  relative viability: 0.446
201T; first compound 0.6325 µM
  relative viability: 0.623
201T; first compound 2 µM
  relative viability: 0.625
LK-2; first compound 0.02 µM
  relative viability: 0.391
LK-2; first compound 0.2 µM
  relative viability: 0.219
LK-2; first compound 0.6325 µM
  relative viability: 0.262
LK-2; first compound 2 µM
  relative viability: 0.133
BEN; first compound 0.02 µM
  relative viability: 0.906
BEN; first compound 0.2 µM
  relative viability: 0.511
BEN; first compound 0.6325 µM
  relative viability: 0.847
BEN; first compound 2 µM
  relative viability: 0.713
NCI-H1734; first compound 0.02 µM
  relative viability: 0.537
NCI-H1734; first compound 0.6325 µM
  relative viability: 0.622
NCI-H1734; first compound 2 µM
  relative viability: 0.566
NCI-H2405; first compound 0.02 µM
  relative viability: 0.702
NCI-H2405; first compound 0.2 µM
  relative viability: 0.594
NCI-H2405; first compound 0.6325 µM
  relative viability: 0.554
NCI-H2405; first compound 2 µM
  relative viability: 0.388
NCI-H460; first compound 0.02 µM
  relative viability: 0.732
NCI-H460; first compound 0.2 µM
  relative viability: 0.482
NCI-H460; first compound 0.6325 µM
  relative viability: 0.628
NCI-H460; first compound 2 µM
  relative viability: 0.596
NCI-H522; first compound 0.02 µM
  relative viability: 0.961
NCI-H522; first compound 0.2 µM
  relative viability: 0.809
NCI-H522; first compound 0.6325 µM
  relative viability: 0.807
NCI-H522; first compound 2 µM
  relative viability: 0.822
NCI-H647; first compound 0.02 µM
  relative viability: 0.564
NCI-H647; first compound 0.2 µM
  relative viability: 0.509
NCI-H647; first compound 0.6325 µM
  relative viability: 0.507
NCI-H647; first compound 2 µM
  relative viability: 0.354
HCC-15; first compound 0.02 µM
  relative viability: 1.29
HCC-15; first compound 0.2 µM
  relative viability: 0.874
HCC-15; first compound 0.6325 µM
  relative viability: 1.14
HCC-15; first compound 2 µM
  relative viability: 1.21
A-427; first compound 0.02 µM
  relative viability: 0.759
A-427; first compound 0.2 µM
  relative viability: 0.636
A-427; first compound 0.6325 µM
  relative viability: 0.611
A-427; first compound 2 µM
  relative viability: 0.569
PC-14; first compound 0.02 µM
  relative viability: 0.381
PC-14; first compound 0.2 µM
  relative viability: 0.286
PC-14; first compound 0.6325 µM
  relative viability: 0.246
PC-14; first compound 2 µM
  relative viability: 0.203
HCC-78; first compound 0.02 µM
  relative viability: 0.583
HCC-78; first compound 0.6325 µM
  relative viability: 0.774
HCC-78; first compound 2 µM
  relative viability: 0.421

## Cc1cn(-c2cc(NC(=O)c3ccc(C)c(Nc4nccc(-c5cccnc5)n4)c3)cc(C(F)(F)F)c2)cn1 [Nilotinib] + NC(=O)Nc1cc(-c2cccc(F)c2)sc1C(=O)N[C@H]1CCCNC1 [AZD7762] (partner 0.2 µM)
HOP-62; first compound 0.001 µM
  relative viability: 0.57
HOP-62; first compound 0.003162 µM
  relative viability: 0.549
HOP-62; first compound 0.01 µM
  relative viability: 0.595
HOP-62; first compound 0.03162 µM
  relative viability: 0.271
EMC-BAC-2; first compound 0.001 µM
  relative viability: 1.05
EMC-BAC-2; first compound 0.003162 µM
  relative viability: 1.02
EMC-BAC-2; first compound 0.01 µM
  relative viability: 1.14
EMC-BAC-2; first compound 0.03162 µM
  relative viability: 1.02
EMC-BAC-2; first compound 0.1 µM
  relative viability: 1.03
NCI-H1915; first compound 0.001 µM
  relative viability: 0.682
NCI-H1915; first compound 0.003162 µM
  relative viability: 0.683
NCI-H1915; first compound 0.01 µM
  relative viability: 0.718
NCI-H1915; first compound 0.03162 µM
  relative viability: 0.67
NCI-H1915; first compound 0.1 µM
  relative viability: 0.619
EKVX; first compound 0.001 µM
  relative viability: 0.599
EKVX; first compound 0.003162 µM
  relative viability: 0.654
EKVX; first compound 0.01 µM
  relative viability: 0.729
EKVX; first compound 0.03162 µM
  relative viability: 0.688
EKVX; first compound 0.1 µM
  relative viability: 0.555
HCC-366; first compound 0.001 µM
  relative viability: 0.18
HCC-366; first compound 0.003162 µM
  relative viability: 0.231
HCC-366; first compound 0.01 µM
  relative viability: 0.264
HCC-366; first compound 0.03162 µM
  relative viability: 0.204
HCC-366; first compound 0.1 µM
  relative viability: 0.115
NCI-H1993; first compound 0.001 µM
  relative viability: 0.875
NCI-H1993; first compound 0.003162 µM
  relative viability: 0.803
NCI-H1993; first compound 0.01 µM
  relative viability: 0.819
NCI-H1993; first compound 0.03162 µM
  relative viability: 0.754
NCI-H1993; first compound 0.1 µM
  relative viability: 0.559
201T; first compound 0.001 µM
  relative viability: 0.568
201T; first compound 0.003162 µM
  relative viability: 0.546
201T; first compound 0.01 µM
  relative viability: 0.563
201T; first compound 0.03162 µM
  relative viability: 0.424
201T; first compound 0.1 µM
  relative viability: 0.317
LK-2; first compound 0.001 µM
  relative viability: 0.349
LK-2; first compound 0.003162 µM
  relative viability: 0.447
LK-2; first compound 0.01 µM
  relative viability: 0.47
LK-2; first compound 0.03162 µM
  relative viability: 0.382
LK-2; first compound 0.1 µM
  relative viability: 0.514
BEN; first compound 0.001 µM
  relative viability: 0.76
BEN; first compound 0.003162 µM
  relative viability: 0.649
BEN; first compound 0.01 µM
  relative viability: 0.589
BEN; first compound 0.03162 µM
  relative viability: 0.6
BEN; first compound 0.1 µM
  relative viability: 0.53
NCI-H1734; first compound 0.001 µM
  relative viability: 0.498
NCI-H1734; first compound 0.003162 µM
  relative viability: 0.617
NCI-H1734; first compound 0.01 µM
  relative viability: 0.558
NCI-H1734; first compound 0.03162 µM
  relative viability: 0.387
NCI-H1734; first compound 0.1 µM
  relative viability: 0.219
NCI-H2405; first compound 0.001 µM
  relative viability: 0.684
NCI-H2405; first compound 0.003162 µM
  relative viability: 0.628
NCI-H2405; first compound 0.01 µM
  relative viability: 0.665
NCI-H2405; first compound 0.03162 µM
  relative viability: 0.557
NCI-H2405; first compound 0.1 µM
  relative viability: 0.399
NCI-H460; first compound 0.001 µM
  relative viability: 0.549
NCI-H460; first compound 0.003162 µM
  relative viability: 0.603
NCI-H460; first compound 0.01 µM
  relative viability: 0.389
NCI-H460; first compound 0.03162 µM
  relative viability: 0.427
NCI-H460; first compound 0.1 µM
  relative viability: 0.41
NCI-H522; first compound 0.01 µM
  relative viability: 0.861
NCI-H522; first compound 0.03162 µM
  relative viability: 0.767
NCI-H522; first compound 0.1 µM
  relative viability: 0.649
NCI-H647; first compound 0.001 µM
  relative viability: 0.477
NCI-H647; first compound 0.003162 µM
  relative viability: 0.41
NCI-H647; first compound 0.01 µM
  relative viability: 0.359
NCI-H647; first compound 0.03162 µM
  relative viability: 0.285
NCI-H647; first compound 0.1 µM
  relative viability: 0.341
HCC-15; first compound 0.001 µM
  relative viability: 1.1
HCC-15; first compound 0.003162 µM
  relative viability: 1.28
HCC-15; first compound 0.01 µM
  relative viability: 1.39
HCC-15; first compound 0.03162 µM
  relative viability: 1.25
HCC-15; first compound 0.1 µM
  relative viability: 1.19
A-427; first compound 0.001 µM
  relative viability: 0.716
A-427; first compound 0.003162 µM
  relative viability: 0.501
A-427; first compound 0.01 µM
  relative viability: 0.681
A-427; first compound 0.03162 µM
  relative viability: 0.535
A-427; first compound 0.1 µM
  relative viability: 0.338
PC-14; first compound 0.001 µM
  relative viability: 0.359
PC-14; first compound 0.003162 µM
  relative viability: 0.285
PC-14; first compound 0.01 µM
  relative viability: 0.399
PC-14; first compound 0.03162 µM
  relative viability: 0.305
HCC-78; first compound 0.001 µM
  relative viability: 0.668
HCC-78; first compound 0.003162 µM
  relative viability: 0.442
HCC-78; first compound 0.01 µM
  relative viability: 0.725
HCC-78; first compound 0.03162 µM
  relative viability: 0.58
HCC-78; first compound 0.1 µM
  relative viability: 0.628
